Results on one compound are retold here after patent US8536343B2, “Arylamidine derivative, salt thereof and antifungal agent containing those” (Toyama Chemical Co., Ltd., priority 2005, dated 2013).

A short description of series [1]: Repeated intravenous dose toxicity study in mice (plasma AST, ALT). Type of series: in vivo. The conditions noted are these: ICR male mice, i.v. once daily for 3 days (25 mg/kg or 6.25 mg/kg), day 1 after completion; relative to saline control. Here is the method: As Test Compounds, the compound of Example 3, Comparative Compound 2 and Comparative Compound 3 were used.
A repeated intravenous dose toxicity study was conducted using ICR strain male mice (6 week-old, 5 mice/group). The administration solutions were prepared by adding 3-fold molar amount of hydrochloric acid to the respective Test Compounds, and further adding a sterile physiological saline solution. The compounds of Example 3 and Comparative Compound 2, respectively at 25 mg/kg, and Comparative Compound 1 at 6.25 mg/kg were administered into the tail vein once daily for 3 days. To the control group, a sterile physiological saline solution was administered.
On day 1 after the completion of the administration, each mouse was etherized. Blood samples were taken from the abdominal vein using an injection syringe containing heparin as an anticoagulant (Novo-Heparin 1,000 units for injection, Aventis Pharma Ltd.), and the samples were centrifuged (3,300 rpm, 4° C., 10 min; Kubota Model 5900) to obtain the plasma. The blood biochemical tests with respect to aspartate aminotransferase (AST) and alanine aminotransferase (ALT) for the samples were conducted according to the JSCC consensus measuring method. The values for the Test Compounds and Comparative Compounds were calculated based on the values for the control (administration of a sterile physiological saline solution) as 100.

Another series has as its target T1, human CYP2D6 (Homo sapiens, UniProt P10635).
T1 construct: host or cells: insect cells (microsomes)
Put plainly: Inhibitory effect on CYP2D6. Type of series: in vitro ADME. As to conditions: microsome from insect cells expressing human CYP2D6, fluorescent substrate, 37° C. 30 min, 72 to 0.0329 μmol/L. The method, then: Inhibitory effects of the compound of Example 3, Comparative Compound 1, Comparative Compound 2 and Comparative Compound 3 on human hepatic drug-metabolizing enzyme CYP2D6 were compared. A microsome prepared from insect cells expressing human CYP2D6 was used, and a substrate was 3-[2-(N,N-diethyl-N-methylammonium)ethyl]-7-methoxy-4-methylcoumarin iodide. The reaction was conducted in a phosphate buffer solution (100 mmol/L, pH 7.4) including final concentrations of 20 nmol/L for the enzyme, 1.5 μmol/L for the substrate, 1.55 mmol/L for nicotinamide adenine dinucleotide phosphate oxidized form (NADP+), 3.3 mmol/L for glucose-6-phosphate, 3.3 mmol/L for magnesium chloride and 0.4 Units/mL for glucose-6-phosphate dehydrogenase (G6PDH). The concentrations of the respective compounds in the reaction solution were prepared in a 3-fold dilution series with a final concentration range of 72 to 0.0329 μmol/L. The reaction solutions were incubated at 37° C. for 30 min. Then the reaction was terminated by a 80% acetonitrile solution (containing tris at a final concentration of 0.1 mol/L), and the enzyme activity was determined by measuring fluorescence with wavelength of 465 nm using excitation wavelength of 400 nm. The inhibitory effect was expressed as IC50. Quinidine was used as a positive control.

The target of another series is T2, human CYP2C19 (Homo sapiens, UniProt P33261).
T2 construct: host or cells: insect cells (microsomes)
Put plainly: Inhibitory effect on CYP2C19. Type of series: in vitro ADME. The conditions noted are these: microsome from insect cells expressing human CYP2C19, dibenzylfluorescein, 37° C. 30 min, 72 to 0.0329 μmol/L. Here is the method:
Inhibitory effects of the compound of Example 3 and Comparative Compound 1 on human hepatic drug-metabolizing enzyme CYP2C19 were compared. A microsome prepared from insect cells expressing human CYP2C19 was used. Dibenzylfluorescein was used as a substrate. The reaction was conducted in a phosphate buffer solution (100 mmol/L, pH 7.4) including final concentrations of 15 nmol/L for the enzyme, 1.0 μmol/L for the substrate, 1.55 mmol/L for nicotinamide adenine dinucleotide phosphate oxidized form (NADP+), 3.3 mmol/L for glucose-6-phosphate, 3.3 mmol/L for magnesium chloride and 0.4 Units/mL for glucose-6-phosphate dehydrogenase (G6PDH). The concentrations of the respective compounds in the reaction solution were prepared in a 3-fold dilution series with a final concentration range of 72 to 0.0329 μmol/L. The reaction solutions were incubated at 37° C. for 30 min. Then the reaction was terminated by a 2 mol/L sodium hydroxide aqueous solution, and the reactant was further incubated at 37° C. for 2 hours. The enzyme activity was determined by measuring fluorescence with wavelength of 535 nm using excitation wavelength of 485 nm. The inhibitory effect was represented as IC50. Tranylcypromine was used as a positive control.

T2 sequence (P33261 whole entry): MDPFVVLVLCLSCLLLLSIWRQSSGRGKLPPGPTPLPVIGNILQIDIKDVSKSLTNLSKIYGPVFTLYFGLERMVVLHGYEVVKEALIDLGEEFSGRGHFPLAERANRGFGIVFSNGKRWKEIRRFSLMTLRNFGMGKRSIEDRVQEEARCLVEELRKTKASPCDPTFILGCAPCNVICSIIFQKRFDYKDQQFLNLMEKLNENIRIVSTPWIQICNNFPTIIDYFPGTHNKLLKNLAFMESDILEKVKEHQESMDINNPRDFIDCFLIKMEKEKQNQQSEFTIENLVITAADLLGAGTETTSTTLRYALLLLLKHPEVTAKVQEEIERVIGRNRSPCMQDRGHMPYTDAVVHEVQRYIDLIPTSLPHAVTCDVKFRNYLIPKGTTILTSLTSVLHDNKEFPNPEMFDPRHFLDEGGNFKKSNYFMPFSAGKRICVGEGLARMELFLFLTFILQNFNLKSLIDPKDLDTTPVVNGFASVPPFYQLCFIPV
T1 sequence (P10635 whole entry): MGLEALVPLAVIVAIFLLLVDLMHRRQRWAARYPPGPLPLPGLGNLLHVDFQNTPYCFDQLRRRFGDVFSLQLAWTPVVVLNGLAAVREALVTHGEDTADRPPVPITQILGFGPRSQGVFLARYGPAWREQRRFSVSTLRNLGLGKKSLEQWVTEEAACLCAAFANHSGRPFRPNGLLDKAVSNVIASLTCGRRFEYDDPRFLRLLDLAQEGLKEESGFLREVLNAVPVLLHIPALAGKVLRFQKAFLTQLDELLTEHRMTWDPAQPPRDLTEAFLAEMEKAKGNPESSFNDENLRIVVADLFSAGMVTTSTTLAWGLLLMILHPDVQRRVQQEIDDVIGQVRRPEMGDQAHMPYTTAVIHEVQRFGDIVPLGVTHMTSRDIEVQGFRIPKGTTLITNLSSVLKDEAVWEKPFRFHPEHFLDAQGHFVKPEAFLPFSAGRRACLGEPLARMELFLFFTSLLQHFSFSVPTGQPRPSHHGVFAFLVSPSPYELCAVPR

`CCCCOC(=O)N=C(N)c1ccc(OCCCC2CCN(CCCOc3ccc(C(N)=NC(=O)OCCCC)cc3)CC2)cc1` [Example 3, 4-{3-[4-(3-{4-[amino(butoxycarbonylimino)methyl]phenoxy}propyl)-1-piperidinyl]propoxy}-N′-(butoxycarbonyl)benzamidine]: in series [1], the “ALT (alanine aminotransferase) in plasma” value is on record as “No abnormality”. Further, in series [1], the “AST (aspartate aminotransferase) in plasma” value is recorded as “No abnormality”. Also, the IC50 against human CYP2D6 and at human CYP2C19 was > 72 µM throughout.

In general, IC50 refers to the concentration needed to halve the response being measured. Read a low IC50 as greater potency in that assay.
